This note sets out measurements from patent US6203976A, “Methods of preparing compositions comprising chemicals capable of transcriptional modulation” (OSI Pharmaceuticals, Inc., priority 1994, dated 2001).

Data set [1] deals with human growth hormone (532) promoter. The experiment in a line: High-throughput luciferase reporter assay, human Growth Hormone promoter (Screen III). It counts as cell-based. As to conditions: 532 cells, 6 hours; for FOLD INHIBITION RELATIVE TO SOLVENT CONTROL, hGH: Screen III inhibitors.
In the next data set the test system is MMTV (M10) promoter. The experiment in a line: High-throughput luciferase reporter assay, MMTV promoter (Screen III). The data set is classed as cell-based, mouse. As to conditions: M10 cells, 6 hours; for FOLD INHIBITION RELATIVE TO SOLVENT CONTROL, MMTV: Screen III inhibitors. In general terms: In a reporter assay the amount or activity of a reporter protein is the signal.

Data set [2] has as its system human G-CSF (G21) promoter. As to conditions: Screen III inhibitors; G21 cells; 6 hours.
A further data set concerns CMV reporter (CM1 cells). The experiment in a line: Luciferase signal half-life after Actinomycin D, CM1 cells. It counts as cell-based, human. The following applies: Actinomycin D 25 microg/ml. From the text: Hep3B hepatocellular carcinoma cells were transfected by electroporation with 75 micrograms of pCM106 which had been linearized by a single ScaI cut within the vector backbone. Neomycin resistant colonies were isolated and tested for luciferase activity. Luciferase positive, neomycin resistant clones were subjected to Southern blot analysis (see below). The best clone, producing the most luciferase activity from a single, correctly integrated vector was selected for use as the CMV reporter cell line in the high throughput screen (this clone was designated CM1).
(§1) When screening for inhibitors rather than inducers of transcription, the half-life of the reporter molecule becomes a crucial parameter in determining the minimal incubation time that would be necessary to allow enough decay of reporter molecules so that the inhibition of their synthesis became visible. […] This experiment measured the combined half-life of luciferase mRNA and of the luciferase protein and compares the rate of signal decay of the CMV reporter to three other well characterized genes; H-ras, K-ras and c-erbB2.
(§2) Cells derived from clones CM1 (CMV), K2 (K-ras), H21 (H-ras) and N2 (c-erbB2) were seeded into 96-well microtiter plates and incubated overnight. […] At the times indicated in FIG. 22, cells were washed with PBS and luciferase activity of Actinomycin-treated cells determined as described in Materials and Methods. […]

Data set [3] deals with K-ras reporter (K2 cells). Nature of the data set: Luciferase signal half-life after Actinomycin D, K2 cells. As to conditions: Actinomycin D 25 microg/ml. The data set is classed as cell-based, human.
Description: 75 micrograms of the pKRAS106 plasmid was linearized by a single restriction endonuclease cleavage within the vector backbone and electroporated into SW480 human colon carcinoma cells. Neomycin resistant clones were isolated and tested for luciferase activity. Clones testing positive for luciferase production were subjected to Southern blot analysis (see below). The best clone (producing the highest signal and carrying a single intact copy of the transfected DNA) was utilized for high throughput screening (designated clone K2).
as §1, §2

Data set [4] relates to H-ras reporter (H21 cells). The experiment in a line: Luciferase signal half-life after Actinomycin D, H21 cells. The data set is classed as cell-based. As to conditions: Actinomycin D 25 microg/ml. On the procedure:
When screening for inhibitors rather than inducers of transcription, the half-life of the reporter molecule becomes a crucial parameter in determining the minimal incubation time that would be necessary to allow enough decay of reporter molecules so that the inhibition of their synthesis became visible. The CMV reporter cell line was therefore tested for the time dependency of luciferase activity after treatment of the cells with Actinomycin D, an inhibitor of transcription. This experiment measured the combined half-life of luciferase mRNA and of the luciferase protein and compares the rate of signal decay of the CMV reporter to three other well characterized genes; H-ras, K-ras and c-erbB2.
Cells derived from clones CM1 (CMV), K2 (K-ras), H21 (H-ras) and N2 (c-erbB2) were seeded into 96-well microtiter plates and incubated overnight. At time 0, Actinomycin D (25 microg/ml) was added. At the times indicated in FIG. 22, cells were washed with PBS and luciferase activity of Actinomycin-treated cells determined as described in Materials and Methods. The signal from the treated cells was compared to the luciferase activity of untreated controls.

Data set [5] concerns neu (c-erbB2) reporter (N2 cells). The experiment in a line: Luciferase signal half-life after Actinomycin D, N2 cells. It counts as cell-based, human. As to conditions: Actinomycin D 25 microg/ml.
Description: 75 micrograms of the pNEU106 plasmid was linearized by a single restriction endonuclease cleavage within the vector backbone and electroporated into HTB30 human breast carcinoma cells. Neomycin resistant clones were isolated and tested for luciferase activity. Clones testing positive for luciferase production were subjected to Southern blot analysis (see below). The best clone (producing the highest signal and carrying a single intact copy of the transfected DNA) was utilized for high throughput screening (designated clone N2).
as §1, §2

Data set [6] concerns human G-CSF (G21) promoter. The experiment in a line: High-throughput luciferase reporter assay, G-CSF promoter (Screen III). The following applies: G21 cells, 6 hours.

Where two headings read alike, the source gives them in different places. Starred links: 1 amine or outer side, 2 acyl side, 3 side chain; linkers in the order of their positions; H or OH if unused. Positions of bridges follow the written chain, without caps; N, C: chain ends. Non-standard residues stand in square brackets, D forms with d. Residues, ends and D or L forms follow the SMILES beside them. Chains are numbered I, II in the order given. Actinocin(9to1) = Cc1c2oc3c(C)ccc(C(=O)[*:1])c3nc-2c(C(=O)[*:2])c(N)c1=O; NMeV = CN[C@H](C(=O)O)C(C)C; Sar = CNCC(=O)O

As to `CC1(C)[C@H]2CC[C@]1(C)[C@H](O)C2` [compound 1635], in data set [1], the “FOLD INHIBITION RELATIVE TO SOLVENT CONTROL, hGH” value is on record as 9.09 fold. Besides, the “FOLD INHIBITION RELATIVE TO SOLVENT CONTROL, MMTV” value in the data set on MMTV (M10) promoter is recorded as 0.99 fold. The “FOLD INHIBITION RELATIVE TO SOLVENT CONTROL, GCSF” value in data set [2] amounted to 0.71 fold.

For the compound `CCCCCCCCCCCCCCCCBr` [compound 2037], the “FOLD INHIBITION RELATIVE TO SOLVENT CONTROL, hGH” value in data set [1] was found to be 4.00 fold. Also, the “FOLD INHIBITION RELATIVE TO SOLVENT CONTROL, MMTV” value with MMTV (M10) promoter was 0.50 fold. Further, the “FOLD INHIBITION RELATIVE TO SOLVENT CONTROL, GCSF” value in data set [2] is recorded as 0.51 fold.

`O=S(=O)(O)c1ccc2c(N=Nc3ccc(S(=O)(=O)O)c4ccccc34)c(O)c(S(=O)(=O)O)cc2c1` [compound 512]: in data set [1], the “FOLD INHIBITION RELATIVE TO SOLVENT CONTROL, hGH” value came to 5.26 fold. The “FOLD INHIBITION RELATIVE TO SOLVENT CONTROL, MMTV” value in the data set on MMTV (M10) promoter is 0.68 fold. Also, the “FOLD INHIBITION RELATIVE TO SOLVENT CONTROL, GCSF” value in data set [2] is listed as 0.81 fold.

Turning to `Nc1nc2c(nc(Br)n2[C@@H]2O[C@H](CO)[C@@H](O)[C@H]2O)c(=O)[nH]1` [compound 2036], the “FOLD INHIBITION RELATIVE TO SOLVENT CONTROL, hGH” value in data set [1] worked out at 4.34 fold. In addition, the “FOLD INHIBITION RELATIVE TO SOLVENT CONTROL, MMTV” value in the data set with MMTV (M10) promoter is on record as 0.81 fold. Besides, the “FOLD INHIBITION RELATIVE TO SOLVENT CONTROL, GCSF” value in data set [2] stood at 0.58 fold.

Turning to `CC1(C)[C@H]2CC[C@]1(C)C(=O)C2` [compound 1720], in data set [1], the “FOLD INHIBITION RELATIVE TO SOLVENT CONTROL, hGH” value came to 4.76 fold. In addition, in the data set on MMTV (M10) promoter, the “FOLD INHIBITION RELATIVE TO SOLVENT CONTROL, MMTV” value worked out at 0.66 fold. In data set [2], the “FOLD INHIBITION RELATIVE TO SOLVENT CONTROL, GCSF” value came to 0.65 fold.

As for `Cc1n[nH]c(C)c1Br` [compound 2009], in data set [1], the “FOLD INHIBITION RELATIVE TO SOLVENT CONTROL, hGH” value was 0.57 fold. Besides, in the data set on MMTV (M10) promoter, the “FOLD INHIBITION RELATIVE TO SOLVENT CONTROL, MMTV” value amounted to 0.64 fold. The “FOLD INHIBITION RELATIVE TO SOLVENT CONTROL, GCSF” value in data set [2] is reported as 3.70 fold.

Turning to `Cc1c2oc3c(C)ccc(C(=O)N[C@@H]4C(=O)N[C@H](C(C)C)C(=O)N5CCC[C@H]5C(=O)N(C)CC(=O)N(C)[C@@H](C(C)C)C(=O)O[C@@H]4C)c3nc-2c(C(=O)N[C@@H]2C(=O)N[C@H](C(C)C)C(=O)N3CCC[C@H]3C(=O)N(C)CC(=O)N(C)[C@@H](C(C)C)C(=O)O[C@@H]2C)c(N)c1=O` [Actinomycin D] (I: T[dV]P[Sar][NMeV] / II: T[dV]P[Sar][NMeV]; ester I:1-I:C, II:1-II:C; linker I:N-II:N via Actinocin(9to1)), the “Signal Halflife” value in the data set with CMV reporter (CM1 cells) was found to be 6.5 h; in data set [3] it was 6.5 h; in data set [4], 10 h; in data set [5] it was 3 h.

`Nc1ccc(SSc2ccc(N)cc2)cc1` [compound 1483]: the “FOLD INDUCTION RELATIVE TO SOLVENT CONTROL, hGH” value in data set [1] (Screen III activators) worked out at 0.38 fold. For the same compound, the “FOLD INDUCTION RELATIVE TO SOLVENT CONTROL, MMTV” value in the data set on MMTV (M10) promoter (Screen III activators) was 1.09 fold. For the same compound, in data set [6] (Screen III activators), the “FOLD INDUCTION RELATIVE TO SOLVENT CONTROL, GCSF” value worked out at 4.64 fold.

For the compound `Cc1ccc(P(CCP(c2ccc(C)cc2)c2ccc(C)cc2)c2ccc(C)cc2)cc1` [compound 1591], the “FOLD INHIBITION RELATIVE TO SOLVENT CONTROL, hGH” value in data set [1] is on record as 5.55 fold. Also, in the data set on MMTV (M10) promoter, the “FOLD INHIBITION RELATIVE TO SOLVENT CONTROL, MMTV” value is listed as 0.96 fold. Besides, the “FOLD INHIBITION RELATIVE TO SOLVENT CONTROL, GCSF” value in data set [6] (Screen III inhibitors) is on record as 0.56 fold.
